Reference: patent publication US12637424B2, “Pharmaceutical salt of an arylpyrrole derivative” (SENTINEL ONCOLOGY LIMITED, priority 2020, dated 2026)
Where a name gives a salt, the structure may show the parent alone.

How the values were obtained:
Assay type in all cases: physicochemical
[1] = Gravimetric solubility in water; details: thermodynamic from solid, gravimetric solubility protocol
Method: The solubility in water of the salts was measured using a gravimetric solubility protocol. 1 ml of water was charged into crystallisation tubes. The solid was weighed into a tared glass vial, added in portions to the solutions and the vial weighed after each addition until a hazy solution was observed. The amount in mg was then calculated to give the solubility in mg/ml.

[2] = Gravimetric vapour sorption (GVS)
Method: The sample was maintained at a constant temperature (25° C.) by the instrument controls. The humidity was controlled by mixing streams of dry and wet nitrogen, with a total flow of 250 ml·min-1. The instrument was verified for relative humidity content by measuring three calibrated Rotronic salt solutions (10-50-88%). The weight change of the sample was monitored as a function of humidity by a microbalance (accuracy+/−0.005 mg). A defined amount of sample was placed in a tared mesh stainless steel basket under ambient conditions. A full experimental cycle typically consisted of three scans (sorption, desorption and sorption) at a constant temperature (25° C.) and 10% RH intervals over a 0-90% range (60 minutes for each humidity level).

[3] = Solubility in (2-hydroxypropyl)-β-cyclodextrin 20% w/v in water; details: continuous stirring, gentle warming to 40° C.
[4] = Powder density and flowability
Method: The compound was allowed to settle prior to weighing with approximately 40 mL volume occupied and bulk density calculated. […] The tap density was then calculated.

ICH storage stability = assay: ICH storage stability
From the text: The stability protocol followed ICH guidelines. […] Following storage, these samples were removed from the stability cabinet and analysed for appearance, water content by Karl Fischer titration (KF), and purity. No change in water content or chemical purity by HPLC was observed over six months. […]

[5] = calculated from bulk and tap density

SMILES: CN(C)CCNC(=O)c1ccc(-c2ccc(-c3ccc(Cl)cc3)n2-c2ccccc2C(F)(F)F)cc1 (single isomer, unassigned) [Atropisomer A-2 Tartrate Pattern A salt]
- solubility [1]: 6700 µg/mL

SMILES: CN(C)CCNC(=O)c1ccc(-c2ccc(-c3ccc(Cl)cc3)n2-c2ccccc2C(F)(F)F)cc1 (single isomer, unassigned) [Atropisomer A-2 Tartrate Pattern B salt]
- solubility [1]: 7500 µg/mL
- moisture content before the first desorption ([2]; GVS, 25° C.): ca. 0.3%
- moisture taken up between 80 and 90% RH ([2]; GVS, 25° C., 80-90% RH): ca. 0.8%
- concentration achieved in solution [3]: > 100000 µg/mL
- powder bulk density [4]: 0.55 g/mL
- tap density [4]: ~0.659 g/mL
- Carr's index [4, 5]: 16.5%
- Hausner ratio [4, 5]: 1.19
- flowability ([4]; descriptor from Carr's index and Hausner ratio): fair
- Appearance (ICH storage stability; T = 0): A white solid.
- Chemical purity by HPLC (ICH storage stability; T = 0): 99.60%
- Water content by KF (ICH storage stability; T = 0): 0.2% w/w
- Appearance (ICH storage stability; T = 6 month, 25° C./60% RH): A white solid.
- Chemical purity by HPLC (ICH storage stability; T = 6 month, 25° C./60% RH): 99.60%
- Water content by KF (ICH storage stability; T = 6 month, 25° C./60% RH): 0.2% w/w
- Appearance (ICH storage stability; T = 6 month, 40° C./75% RH): A white solid.
- Chemical purity by HPLC (ICH storage stability; T = 6 month, 40° C./75% RH): 99.60%
- Water content by KF (ICH storage stability; T = 6 month, 40° C./75% RH): 0.2% w/w
- change in water content or chemical purity by HPLC (ICH storage stability; over six months, 25° C./60% RH and 40° C./75% RH): No change

SMILES: CN(C)CCNC(=O)c1ccc(-c2ccc(-c3ccc(Cl)cc3)n2-c2ccccc2C(F)(F)F)cc1 [(+)-L-tartaric acid salt, (R)-4-[5-(4-chlorophenyl)-1-[2-(trifluoromethyl)-phenyl]pyrrol-2-yl]-N-[2-(dimethylamino)-ethyl]benzamide (+)-L-tartaric acid salt]
- moisture uptake (surface moisture) ([2]; at 90% RH): < 1%
